{"source": "patent US9834535B2", "about": "“Sulfamate derivative compounds for use in treating or alleviating pain” (Bio-Pharm Solutions Co., Ltd., priority 2013, dated 2017)", "key": {"[1]": {"test_system": "tail-flick withdrawal latency", "experiment": "Tail-flick test", "type": "in vivo, ICR mice", "details": "mouse, oral", "procedure": "To examine the pain relief effect of the sulfamate compounds, a tail-flick test was conducted in general pain animal model referring to Current Protocols in Neuroscience; Behavioral Neuroscience Unit 8.9.\nICR mice (male, 25-30 g; Orient Bio, Korea) were habituated before test in test room for 1 hour. Animals were fasted 2 hr before administration of compounds. Each of Compound was orally administered at the close of 150 mg/kg, 10 ul/g, bw (n=7˜10/group). All compounds were dissolved in a vehicle of 30% (v/v) PEG 400 or 20% (v/v) Tween 80. The control group was treated the vehicle without compounds.\nAfter the administration of compounds, the mice tail were put on a tail-flick analgesia meter. To avoid tissue damage, maximal exposure time to pain stimuli was restricted to 15 s. The withdrawal latency was measured as the time to the point when each mouse response to the stimulus. The relative values compared to the control (% control) were calculated.\nThe relative values compared to the sham were calculated and shown in Table 12, which show effect of the compound of examples on tail-flick test in […]."}, "STZ-induced pain model": {"test_system": "STZ-induced pain model", "experiment": "Antiallodynic activity on streptozotocin (STZ)-induced diabetic pain model (von Frey)", "type": "in vivo, Sprague-Dawley rats", "details": "ip, rat, intraperitoneal, 0.5 h", "procedure": "Male, Sprague-Dawley rats (200-220 g, Nara Bio, Korea) were habituated for 1 week before surgery and allowed free access to food and water throughout the experimentation. Room temperature and humidity were maintained at 24±2° C. and 50±10%, respectively.\nSTZ-induced diabetic pain model was established with a modified method of Rakieten et al. (1963) and Bertrand Aubel et al. (2004). All animals were fasted 4 to 6 hr prior to STZ injection. STZ (sigma, USA) was dissolved in 20 mM sodium citrate buffer, pH 5.5 (sigma, USA) and intraperitoneally injected at 75 mg/kg, 4 ul/g, bw into the rats. […]\nTactile sensitivity (Mechanical allodynia) was evaluated using von Frey monofilaments before and after treatment of the compound of Examples and animals were used withdrawal threshold value was less than 4 g. […] The tactile sensitivity for ipsilateral hind paw was measured using the up-and-down method (Dixon, 1980) with seven von Frey monofilaments (0.4, 1, 2, 4, 6, 8, and 15 g) to 3 trials. […] The 50% paw withdrawal threshold for each paw was calculated using the following formula: [Xth] log=[vFr] log+ky where [vFr] is the force of the last von Frey used k=0.2249 which is the average interval (in log units) between the von Frey monofilaments, and y is a value that depends upon the pattern of withdrawal responses (Dixon, 1980). […]"}, "[2]": {"test_system": "Post operation-induced pain model", "experiment": "Antiallodynic activity on post operative-induced pain model (von Frey)", "type": "in vivo, Sprague-Dawley rats", "details": "ip; rat, intraperitoneal, von Frey, 0.5 h", "procedure": "Male Sprague-Dawley rats′(Orient Bio, Korea), 300˜320 g, total of 201 rats were used (details in Table 7). Rats were habituated at least 3 clays before surgery and free access to food and water (room temperature and humidity were maintained at 24±2° C. and 50±10%, respectively). The process of performing the post-operation model's surgery was adapted from Brennan et al (1996). At first, rats with allodynia (threshold valueless than 8 g) were excluded in Pre-von Frey Test. During the post-operation surgery, rats were anesthetized under gaseous anesthesia with 2% isoflurane. Rats were laid face down on a plate fixed at 37° C. to prevent against hypothermia. The ipsilateral plantar aspect (left side) of the hind paw was prepared in a sterile manner with a 10% povidone-iodine solution. […]\nFor efficacy measure, the threshold value of group C was assigned 100% efficacy, and the percentage of the threshold values of group A compared to group C (for each different dose level) were calculated as the efficacies. Base on these efficacy values, ED50 was calculated using log fitting. […]\nFor pain threshold test, all animals were placed in a stainless steel meshed chamber and habituated for 30 min in the test box. The tactile sensitivity of the ipsilateral hind paw was measured using the up-and-down method (Dixon, 1980) with seven von Frey monofilaments (0.4, 1, 2, 4, 6, 8, and 15 g) using 3 trials. […]"}}}
{"smiles": "CC1(C)O[C@@H](COS(N)(=O)=O)[C@H](c2ccccc2Cl)O1", "note": "[Example 2, ((4S,5S)-5-(2-chlorophenyl)-2,2-dimethyl-1,3-dioxolan-4-yl)methyl sulfamate]", "values": [{"measurement": "tail-flick test: dose", "setting": "[1]", "result": "> 200", "unit": "mg/kg"}, {"measurement": "ED50", "setting": "STZ-induced pain model", "result": 7.9, "unit": "mg/kg"}, {"measurement": "ED50", "setting": "[2]", "result": 1.8, "unit": "mg/kg"}]}
